Results published in article PMC11755785 (Langmuir, 2025).

Legend:
[1] = Flask-shaking 1-octanol/water partition, log D–pH profile fitted to Avdeef's diagram; format: physicochemical; details: modified Britton–Robinson buffers pH 5–11.5, 298 K
Experimental: The aqueous-phase solvents were prepared by mixing 25 mM KH2PO4 and 25 mM Na2HPO4 solutions in 25 mM Pi buffer. The pH was adjusted before fixing the prescribed concentrations of the acid components of the buffer. The JP1 and JP2 buffer solutions were 10 mM sodium citrate/HCl buffer (pH 1.2) and Pi buffer (pH 6.8), which were prepared in compliance with the description for solution media for the dissolution test in Japanese Pharmacopeia (JP)-implemented international harmonization. The modified Britton–Robinson universal pH buffer comprised 28.6 mM KH2PO4, 28.6 mM HBO2, and 28.6 mM NaCl, titrated with 1 M NaOH (here, modified means elimination of barbital to cancel its interaction with organic solutes). For the partition equilibrium examination, the aqueous saturated 1-octanol phase comprised 1-octanol, which was flooded with a modified Britton–Robinson buffer adjusted to the appropriate pH in advance.
The hydrophobic drug dissolved in the aqueous saturated 1-octanol phase was mixed with an isochoric solution of the modified Britton–Robinson buffer (pH 5–11.5), saturated with 1-octanol. Thereafter, the samples in the screw-capped vials were machine-shaken at 298 K in a thermostatic chamber for 60 min and subsequently kept stationary for 60 min; the procedure corresponds to the conventional “flask-shaking” method.[41]−[43] After settling, the pH in the aqueous phase was confirmed using pH indicator strips (MColoHast pH 0–6.0, MQuant pH 7.5–14, and MQuant pH 0–14, Merck, Germany) to be that of the adjusted pH value. Aliquots (10 μL) from the 1-octanol and the aqueous layers were injected into the HPLC instrument. The 1-octanol/water partition coefficients, log P (equivalent to log KOW), and acid dissociation constants, pKa, were optimized using curve fitting, approximated by eq 1 [drawing 1] 1 which is Avdeef’s diagram[44] derived from the Henderson–Hasselbalch expression for the equilibrium between the protonated and deprotonated species. The curve-fitting procedures used the solver module of Microsoft Excel 2016 with the implemented GRG nonlinear option. Approximate curves corresponding to these optimized parameters were drawn, and the pKa and log P values for AVB, OXB, and CUR were obtained.

[2] = Phase-solubility diagram with β-CD
Experimental: The solutions were mechanically shaken at 298 K in a thermostatic chamber, and the supernatant was sampled and filtered after passage for appropriate periods. The concentration of the drug in the supernatant was determined using HPLC.
The phase-solubility diagram consists of the equilibrium concentration of the guest drug as the ordinate and the total concentration of the host CD as the abscissa.[45] If a straight line and parabolic curve can be approximated on the phase-solubility diagram, then, the curves are classified as AL- and AP-types in the Higuchi and Connors catalogs, respectively.[45],[46]
Multiple regression analysis of the measured data set to the total concentration of the host ([CD]) and its squares ([CD]^2) using eq 3 can be used to obtain the stability constants for a combination of the equimolar complex K1:1 and double-host associating complex K1:2.[45],[46] [drawing 3] 3 This is the sum of the dissociated (free) and associated (complexed) drug concentrations. Although the Benesi–Hildebrand equation with the square of the host concentration has been used for parabolic correlations, its validity remains unclear.
This curve is classified as the AN-type on the Higuchi and Connors catalog.[45]−[48] The curve is described by eq 4′ according to the Langmuir adsorption isotherm model.[47]−[51] To process with the linear regression analysis of ordinate ([CD]/γ) referred to abscissa ([CD]), the Hanes–Woolf expression in eq 4′ may be used [drawing 4] 4 [drawing 5] 4′ where n indicates the asymptotic concentration of the drug associated with CD (saturation, maximal γ) and K is equivalent to the drug/CD complex stability constant. […] The stoichiometry of a complex of drugs with CD is difficult to determine; the prevailing opinion is that more than one guest molecule incorporates a host molecule and that hydration or ionization of the guest regulates the solubility of the complex.[46]
Szejtili[46] stated that, in rare cases, the ascending region at lower host concentrations is followed by a plateau region, similar to that of the AN-type saturation curve. Simultaneously, it terminates at any host concentration threshold. It is named the BS-type in the Higuchi and Connors catalog,[45]−[48] and for concentrations higher than the threshold, the guest concentration decreases along a hyperbola, probably according to the solubility product KSP.[49] To analyze this type of pattern, a hypothesis that is yet to be discussed is required.[52] […] At the threshold concentration of CD, the scale of the aggregated dispersoids transcends an upper limit, and the aggregation induces subsequent sedimentation.[52] Thus, the solubility product may be considered a property of poorly soluble aggregated dispersoids containing a tolerable amount of the drug and an excess amount of CD.

[3] = Photostability under solar light, UV–vis spectra; format: physicochemical; details: solar light 4 h; 50 μM; presence or absence of β-CD
Experimental: The photostability of the drug under solar light was evaluated using UV–vis spectral measurements. Sample solutions were exposed to solar light outdoors at a sunny location on a latitude of 35.92° N and a longitude of 139.91° E for 4 h, from 12:00 to 16:00, at an average temperature of 284.55 K.

[4] = Molar absorption coefficients of 270 and 360 nm peaks (UV–vis calibrated by NMR molar ratio); format: physicochemical
Excerpt: From NMR titration, the diketo and enol forms were expected to be 15.3 and 84.7%, respectively. Therefore, the abscissae of the regression lines were condensed to the species contents, leading to the molar absorption coefficients (i.e., absorbance gradients to the molarity) for the diketo and keto-enol forms being approximately 8.1 × 10^7 and 4.3 × 10^7 L/mol. Figure S13 confirms that the molar absorption coefficients for the diketo and keto-enol forms in the isochoric acetonitrile/water solvent were approximately 13.8 × 10^7 and 3.6 × 10^7 L/mol, respectively. The obtained parameters allowed the absorbance to be converted into AVB molarity.

[5] = cited from earlier work

## p-tert-butyl-p-methoxydibenzoylmethane [AVB]
[1]; from log D–pH curve fitting
  acid dissociation constant, pKa: 8.59
[1]; neutral form, curve fitting
  1-octanol/water partition coefficient, log P: 4.27
[2]; 25 mM Pi/NaOH buffer pH 6.8, 298 K, Figure 2, in M-1 (unit assumed)
  stability constant K1:1 with β-CD: 1023
[2]; equimolar complex, pH 6.8
  stability constant K1:1 with β-CD: 1023 L/mol
[3]
  stability under solar light compared to UVA1 irradiation: no significant changes in stability
[4]; isochoric acetonitrile/water
  molar absorption coefficient, diketo form (270 nm): approximately 13.8 × 10^7 L/mol
  molar absorption coefficient, keto-enol form (360 nm): ~3.6e+07 L/mol
[4]; methanol/H2O = 7:3
  molar absorption coefficient, keto-enol form (360 nm): ~4.3e+07 L/mol
[5]; Chart 1
  log Kow: 4.51
[5]
  reported log P: 4.51
  reported pKa: 9.7
[5]; introduction, reference not given
  partition coefficient log KOW: 4.51
